Data published in DBAASP.
Values after ≈ are worked out from the molar mass of the structure shown.

What was measured:
Experiment in all cases: ≥ marks a high value that may be exact or a test limit, other limits are often not marked, values filed in µg/mL are converted to µM
[1] = test system: Staphylococcus epidermidis
Candida albicans = test system: Candida albicans
Escherichia coli = test system: Escherichia coli
Staphylococcus aureus = test system: Staphylococcus aureus
Bacillus subtilis = test system: Bacillus subtilis
[2] = test system: Escherichia coli ATCC 25922
[3] = test system: Pseudomonas aeruginosa ATCC 27853
Pseudomonas aeruginosa = test system: Pseudomonas aeruginosa
[4] = test system: Staphylococcus aureus ATCC 25923
[5] = test system: Candida albicans ATCC 2002
Escherichia coli UB1005 = test system: Escherichia coli UB1005
[6] = test system: Pseudomonas aeruginosa PAO1

Row | MIC (Candida albicans) [µM] | MIC (Escherichia coli) [µM] | MIC (Staphylococcus aureus) [µM] | MIC (Bacillus subtilis) [µM] | SMILES | other results
1 |  |  |  |  | CC[C@H](C)[C@H](NC(=O)[C@H](CO)NC(=O)[C@@H](NC(=O)[C@H](CCCCN)NC(=O)[C@H](Cc1ccccc1)NC(=O)[C@@H]1CCCN1C(=O)[C@@H](N)CCC(=O)O)[C@@H](C)CC)C(=O)N[C@@H](Cc1cnc[nH]1)C(=O)N[C@@H](CC(C)C)C(=O)NCC(=O)NCC(=O)N[C@@H](Cc1ccc(O)cc1)C(N)=O [EPFKISIHLGGY] | MIC [1]: ≥ 220 µM
2 | 3.78 (≈ 8 µg/mL) | 15.1 (≈ 32 µg/mL) | 3.78 (≈ 8 µg/mL) |  | CC[C@H](C)[C@H](NC(=O)[C@H](CC(=O)O)NC(=O)[C@H](CC(C)C)NC(=O)[C@H](Cc1ccccc1)NC(=O)CN)C(=O)N[C@H](C(=O)N[C@@H](CCCCN)C(=O)NCC(=O)N[C@H](C(=O)NCC(=O)N[C@@H](CCCCN)C(=O)N[C@H](C(=O)N[C@@H](C)C(=O)N[C@@H](CC(C)C)C(=O)NCC(=O)N[C@@H](C)C(=O)N[C@H](C(=O)N[C@@H](CO)C(=O)N[C@@H](CCCCN)C(=O)N[C@@H](CC(C)C)C(=O)N[C@@H](Cc1ccccc1)C(N)=O)C(C)C)C(C)C)C(C)C)C(C)C [GFLDIVKGVGKVALGAVSKLF] | 
3 | 0.341 (≈ 1.05 µg/mL) | 1.36 (≈ 4.2 µg/mL) | 0.681 (≈ 2.1 µg/mL) | 2.72 (≈ 8.39 µg/mL) | CC[C@H](C)[C@@H]1NC(=O)[C@H](CCCCN)NC(=O)[C@@H](NC(=O)[C@H](CCCCN)NC(=O)[C@H](CC(C)C)NC(=O)[C@H](CC(N)=O)NC(=O)[C@H](CC(=O)O)NC(=O)[C@H](CC(C)C)NC(=O)[C@H](CC(C)C)NC(=O)[C@@H](NC(=O)[C@@H](NC(=O)[C@H](C)NC(=O)[C@@H](NC(=O)[C@H](CC(N)=O)NC(=O)[C@H](CCCCN)NC(=O)[C@H](C)NC(=O)[C@H](C)NC(=O)[C@H](CC(N)=O)NC(=O)[C@H](CCCCN)NC(=O)[C@H](C)NC(=O)[C@@H](NC(=O)[C@H](CC(=O)O)NC(=O)[C@H](CCSC)NC(=O)[C@H](Cc2ccccc2)NC(=O)CN)[C@@H](C)O)C(C)C)C(C)C)[C@@H](C)O)CSSC[C@@H](C(=O)O)NC(=O)[C@H](C)NC(=O)[C@H](CCCCN)NC(=O)[C@H]([C@@H](C)O)NC1=O [GFMDTAKNAAKNVAVTLLDNLKCKITKAC] | 
4 | 7.85 (≈ 9 µg/mL) | 31.4 (≈ 36 µg/mL) | 15.7 (≈ 18 µg/mL) | 15.7 (≈ 18 µg/mL) | CC[C@H](C)[C@H](NC(=O)[C@H](CO)NC(=O)CNC(=O)[C@H](CCCN=C(N)N)NC(=O)[C@@H](NC(=O)[C@H](CO)NC(=O)[C@@H](NC(=O)CNC(=O)[C@H](CO)NC(=O)[C@H](CC(C)C)NC(=O)[C@H](CC(C)C)NC(=O)CN)[C@@H](C)O)C(C)C)C(=O)O [GLLSGTSVRGSI] | 
5 |  | 5.5 (≈ 10.5 µg/mL) |  | 27.2 (≈ 52 µg/mL) | CC[C@H](C)[C@H](N)C(=O)N[C@@H](CC(N)=O)C(=O)N[C@@H](Cc1c[nH]c2ccccc12)C(=O)N[C@@H](CCCCN)C(=O)N[C@@H](CCCCN)C(=O)N[C@H](C(=O)N[C@@H](C)C(=O)N[C@@H](CO)C(=O)N[C@H](C(=O)NCC(=O)N[C@@H](CCCCN)C(=O)N[C@@H](CCC(=O)O)C(=O)N[C@H](C(=O)N[C@@H](CC(C)C)C(=O)N[C@@H](CCCCN)C(=O)N[C@@H](C)C(=O)N[C@H](C(N)=O)[C@@H](C)CC)C(C)C)[C@@H](C)CC)[C@@H](C)CC [INWKKIASIGKEVLKAI] | 
6 |  | 100 (≈ 160 µg/mL) |  | ≥ 100 | CC[C@H](C)[C@H](N)C(=O)N[C@@H](CC(N)=O)C(=O)N[C@@H](Cc1c[nH]c2ccccc12)C(=O)N[C@@H](CCCCN)C(=O)N[C@@H](CCCCN)C(=O)N[C@H](C(=O)N[C@@H](C)C(=O)N[C@@H](CO)C(=O)N[C@H](C(=O)NCC(=O)N[C@@H](CCCCN)C(=O)N[C@@H](CCC(=O)O)C(=O)N[C@H](C(=O)N[C@@H](CC(C)C)C(N)=O)C(C)C)[C@@H](C)CC)[C@@H](C)CC [INWKKIASIGKEVL] | 
7 | 102 (≈ 250 µg/mL) | 12.7 (≈ 31.2 µg/mL) | 50.8 (≈ 125 µg/mL) |  | CC[C@H](C)[C@H](NC(=O)[C@H](CC(C)C)NC(=O)[C@@H]1CCCN1C(=O)[C@H](CS)NC(=O)[C@H](CC(C)C)NC(=O)CNC(=O)[C@@H]1CCCN1C(=O)[C@H](CCCCN)NC(=O)[C@H](CCCCN)NC(=O)[C@@H]1CCCN1C(=O)[C@H](CCCN=C(N)N)NC(=O)[C@H](CC(=O)O)NC(=O)[C@@H](N)CCCCN)C(=O)N[C@@H](Cc1c[nH]c2ccccc12)C(=O)N[C@@H](Cc1c[nH]c2ccccc12)C(=O)N[C@@H](CC(C)C)C(=O)N[C@H](C(=O)N[C@H](C(=O)N[C@@H](CCCCN)C(=O)N[C@H](C(=O)NCC(N)=O)C(C)C)[C@@H](C)CC)[C@@H](C)CC [KDRPKKPGLCPLIWWLIIKVG] | MIC [2]: 6.35 µM (≈ 15.6 µg/mL); MIC [3]: 25.4 µM (≈ 62.5 µg/mL); MIC (Pseudomonas aeruginosa): 25.4 µM (≈ 62.5 µg/mL); MIC [4]: 50.8 µM (≈ 125 µg/mL)
8 |  |  |  |  | CC[C@H](C)[C@H](NC(=O)[C@@H](NC(=O)[C@@H](NC(=O)[C@@H]1CCCN1C(=O)[C@H](Cc1c[nH]c2ccccc12)NC(=O)[C@H](Cc1ccccc1)NC(=O)[C@H](CCCN=C(N)N)NC(=O)[C@H](CCCCN)NC(=O)[C@@H](NC(=O)[C@@H](N)CCCN=C(N)N)[C@@H](C)CC)C(C)C)C(C)C)C(=O)N[C@@H](CCCN=C(N)N)C(=O)N[C@H](C(=O)N[C@H](C(=O)N[C@H](C(=O)N[C@@H](C)C(=O)NCC(=O)N[C@@H](Cc1ccc(O)cc1)C(=O)O)C(C)C)C(C)C)[C@@H](C)O [RIKRFWPVVIRTVVAGY] | MIC [5]: ≥ 36.4 µM
9 |  |  |  |  | CC[C@H](C)[C@H](NC(=O)[C@@H](NC(=O)[C@@H](NC(=O)[C@@H]1CCCN1C(=O)[C@H](Cc1c[nH]c2ccccc12)NC(=O)[C@H](Cc1ccccc1)NC(=O)[C@H](CCCN=C(N)N)NC(=O)[C@H](CCCCN)NC(=O)[C@@H](NC(=O)[C@@H](N)CCCN=C(N)N)[C@@H](C)CC)C(C)C)C(C)C)C(=O)N[C@@H](CCCN=C(N)N)C(=O)N[C@H](C(=O)N[C@H](C(=O)N[C@H](C(=O)N[C@@H](C)C(=O)NCC(=O)O)C(C)C)C(C)C)[C@@H](C)O [RIKRFWPVVIRTVVAG] | MIC [5]: ≥ 79.1 µM
10 | 40 (≈ 108 µg/mL) | 10 (≈ 26.9 µg/mL) | 20 (≈ 53.8 µg/mL) |  | CC[C@H](C)[C@H](NC(=O)[C@H](CCCCN)NC(=O)[C@H](CS)NC(=O)[C@H](C)NC(=O)[C@@H](NC(=O)[C@H](Cc1ccccc1)NC(=O)CNC(=O)[C@H](CC(C)C)NC(=O)CNC(=O)[C@@H](NC(=O)[C@H](CCCCN)NC(=O)CNC(=O)[C@H](CC(C)C)NC(=O)[C@H](CC(N)=O)NC(=O)[C@H](CCCCN)NC(=O)[C@H](CC(C)C)NC(=O)[C@@H](NC(=O)[C@H](CCCCN)NC(=O)[C@H](CC(C)C)NC(=O)[C@H](CCSC)NC(=O)[C@@H](N)CO)C(C)C)C(C)C)C(C)C)C(=O)N[C@@H](CC(N)=O)C(=O)N[C@@H](CCCCN)C(=O)N[C@@H](CCC(N)=O)C(=O)N[C@@H](CS)C(=O)O [SMLKVLKNLGKVGLGFVACKINKQC] | 
11 | 100 (≈ 254 µg/mL) | 20 (≈ 50.9 µg/mL) | 100 (≈ 254 µg/mL) |  | CC[C@H](C)[C@H](NC(=O)[C@H](CCCCN)NC(=O)[C@H](C)NC(=O)[C@H](C)NC(=O)[C@@H](NC(=O)[C@H](Cc1ccccc1)NC(=O)CNC(=O)[C@H](CC(C)C)NC(=O)CNC(=O)[C@@H](NC(=O)[C@H](CCCCN)NC(=O)CNC(=O)[C@H](CC(C)C)NC(=O)[C@H](CC(N)=O)NC(=O)[C@H](CCCCN)NC(=O)[C@H](CC(C)C)NC(=O)[C@@H](NC(=O)[C@H](CO)NC(=O)[C@H](CC(C)C)NC(=O)[C@H](CCSC)NC(=O)[C@@H](N)CO)C(C)C)C(C)C)C(C)C)C(=O)N[C@@H](C)C(=O)N[C@@H](CCCCN)C(=O)N[C@@H](CCC(N)=O)C(=O)N[C@@H](C)C(=O)O [SMLSVLKNLGKVGLGFVAAKIAKQA] | 
12 |  | 100 (≈ 161 µg/mL) |  | ≥ 40 | CSCC[C@H](NC(=O)[C@H](CCSC)NC(=O)[C@H](CCCCN)NC(=O)[C@H](CCCCN)NC(=O)CNC(=O)[C@H](CC(C)C)NC(=O)[C@H](CCCCN)NC(=O)[C@H](CC(C)C)NC(=O)[C@H](Cc1c[nH]c2ccccc12)NC(=O)[C@H](CC(N)=O)NC(=O)[C@@H](N)CO)C(=O)N[C@@H](CO)C(=O)N[C@@H](C)C(=O)N[C@@H](CC(C)C)C(N)=O [SNWLKLGKKMMSAL] | 
13 |  |  |  |  | CC[C@H](C)[C@H](NC(=O)[C@H](CCCN=C(N)N)NC(=O)[C@H](CCCCN)NC(=O)[C@@H]1CCCN1C(=O)[C@@H]1CCCN1C(=O)[C@H](CCCN=C(N)N)NC(=O)[C@@H]1CCCN1C(=O)[C@H](CCCN=C(N)N)NC(=O)[C@@H]1CCCN1C(=O)[C@H](CC(C)C)NC(=O)[C@H](Cc1ccc(O)cc1)NC(=O)[C@@H]1CCCN1C(=O)[C@@H]1CCCN1C(=O)[C@H](CCCCN)NC(=O)[C@H](CC(=O)O)NC(=O)[C@@H](N)C(C)C)C(=O)N[C@@H](Cc1ccc(O)cc1)C(=O)N[C@@H](CC(N)=O)C(=O)N[C@@H](CCCN=C(N)N)C(N)=O [VDKPPYLPRPRPPKRIYNR] | MIC (Escherichia coli UB1005): 0.254 µM (≈ 0.6 µg/mL); MIC [6]: 27.1 µM (≈ 64 µg/mL); MIC [4]: 27.1 µM (≈ 64 µg/mL)
14 |  |  |  |  | CC(C)C[C@H](NC(=O)[C@H](Cc1ccc(O)cc1)NC(=O)[C@@H]1CCCN1C(=O)[C@@H]1CCCN1C(=O)[C@H](CCCCN)NC(=O)[C@H](CC(=O)O)NC(=O)[C@@H](N)C(C)C)C(=O)N1CCC[C@H]1C(=O)N[C@@H](CCCN=C(N)N)C(=O)N1CCC[C@H]1C(=O)N[C@@H](CCCN=C(N)N)C(=O)N1CCC[C@H]1C(=O)N1CCC[C@H]1C(=O)N[C@@H](CCCN=C(N)N)C(=O)N[C@@H](CCCN=C(N)N)C(=O)N[C@@H](CCCCN)C(=O)N[C@@H](Cc1ccc(O)cc1)C(=O)N[C@@H](CC(N)=O)C(=O)N[C@@H](CCCN=C(N)N)C(N)=O [VDKPPYLPRPRPPRRKYNR] | MIC (Escherichia coli UB1005): 1.04 µM (≈ 2.5 µg/mL); MIC [6]: 26.6 µM (≈ 64 µg/mL); MIC [4]: 13.3 µM (≈ 32 µg/mL)
